{"source": "patent US8461117B2", "about": "“Chemical linkers and cleavable substrates and conjugates thereof” (Medarex, Inc., priority 2006, dated 2013)", "key": {"[1]": {"conditions": "cited from earlier work"}, "[2]": {"test_system": "786-O", "assay": "Second in vivo study: 786-O xenografts, cytotoxins (Compounds A, F, H-J) conjugated to anti-CD70 HuMAb 2H5", "design": "species or system CB17.SCID mice", "conditions": "786-O xenograft, tumors averaging 200 mm^3, single IP dose Day 0, 0.005-0.03 Toxin μmole, conjugated to CD70.1", "procedure": "(§1) 786-O (ATCC Accession No. CRL-1932) cells were expanded in vitro using standard laboratory procedures. Male CB17.SCID mice (Taconic, Hudson, N.Y.) between 6-8 weeks of age were implanted subcutaneously in the right flank with 2.5 million 786-O in 0.2 ml of PBS/Matrigel (1:1) per mouse. Mice were weighed and measured for tumors three dimensionally using an electronic caliper twice weekly after implantation. Tumor volumes were calculated as height×width×length. Mice with tumors averaging 200 mm^3 were randomized into treatment groups. The mice were dosed intraperitoneally with PBS vehicle, cytotoxin-conjugated isotype control antibody or cytotoxin-conjugated anti-CD70 HuMAb 2H5 on Day 0. Each group contained 8 mice."}, "[3]": {"test_system": "786-O", "assay": "First in vivo study: 786-O xenografts, cytotoxins (Compounds A-G) conjugated to anti-CD70 HuMAb 2H5", "design": "species or system CB17.SCID mice", "conditions": "786-O xenograft, tumors averaging 200 mm^3, single IP dose Day 0, 0.1 (some also 0.01) Toxin μmole, conjugated to CD70.1", "procedure": "as §1, with “as height x width x length.” for “as height×width×length.”, “contained 7” for “contained 8”"}}, "data": [{"compound": "COc1c(O)c2c(c3cc(C(=O)N4CCc5c4c(O)c(OC)c4[nH]c(C(=O)N6CC7CC78C6=CC(=O)c6[nH]cc(C)c68)cc54)[nH]c13)CCN2C(N)=O", "note": "(stereo not drawn) [CC-1065]", "values": [{"measurement": "Antitumor and antimicrobial activity", "setting": "[1]; both in vitro and in experimental animals (Li et al. 1982)", "result": "potent antitumor and antimicrobial activity"}, {"measurement": "Toxicity in experimental animals", "setting": "[1]; experimental animals", "result": "delayed death"}]}, {"compound": "CC(C)[C@H](NC(=O)CCOCCOCCOCCOCCNC(=O)CCN1C(=O)C=CC1=O)C(=O)N[C@@H](CCCNC(N)=O)C(=O)N1CCc2c1ccc1[nH]c(C(=O)N3C[C@@H](CBr)c4c3cc(OC(=O)N3CCN(C)CC3)c3ccccc43)cc21", "note": "[Compound C]", "values": [{"measurement": "Efficacy, descending order (mean/median tumor volume versus days past dosing, FIGS. 4-5)", "setting": "[2]", "result": "Compound J/Compound C>Compound H>Compound G/Compound I>Naked CD70.1"}]}, {"compound": "CC(C)[C@H](NCCNC(=O)CCCN1C(=O)C=CC1=O)C(=O)N[C@@H](CCCNC(N)=O)C(=O)Nc1ccc(C(=O)Nc2ccc3[nH]c(C(=O)N4C[C@@H](CCl)c5c4cc(OC(=O)N4CCN(C)CC4)c4ccccc54)cc3c2)cc1", "note": "[Compound J]", "values": [{"measurement": "Efficacy, descending order (mean/median tumor volume versus days past dosing, FIGS. 4-5)", "setting": "[2]", "result": "Compound J/Compound C>Compound H>Compound G/Compound I>Naked CD70.1"}]}, {"compound": "CC(C)[C@H](NC(=O)CCOCCOCCOCCOCCNC(=O)CCN1C(=O)C=CC1=O)C(=O)N[C@@H](CCCNC(N)=O)C(=O)N1CCc2c1ccc1[nH]c(C(=O)N3C[C@@H](CBr)c4c3cc(OC(=O)N3CCN(C)CC3)c3ccccc43)cc21", "note": "[Compound D]", "values": [{"measurement": "Efficacy, descending order (mean/median tumor volume versus days past dosing, FIGS. 1-2)", "setting": "[3]", "result": "Compound D>Compound A>Compound F>Compound B>Compound C>Compound E>Naked CD70.1/Compound G"}]}, {"compound": "CC(C)[C@H](NCCNC(=O)CCCN1C(=O)C=CC1=O)C(=O)N[C@@H](CCCNC(N)=O)C(=O)Nc1ccc(C(=O)Nc2ccc3[nH]c(C(=O)N4C[C@@H](CBr)c5c4cc(OC(=O)N4CCN(C)CC4)c4ccccc54)cc3c2)cc1", "note": "[Compound H]", "values": [{"measurement": "Efficacy, descending order (mean/median tumor volume versus days past dosing, FIGS. 4-5)", "setting": "[2]", "result": "Compound J/Compound C>Compound H>Compound G/Compound I>Naked CD70.1"}]}]}
